Assay results published in PubChem BioAssay AID330 (DTP/NCI, 2004).
“And” between values parts separate entries of the source, which are not always exact repeats. Equal entries are not always repeated. Inconclusive results and toxic doses are left out.

Test system: P388 leukemia ip, CD2F1 mice, survival T/C
Assay: NCI In Vivo Anticancer Drug Screen. Data for tumor model P388 Leukemia (intraperitoneal) in CD2F1 (CDF1) mice
Settings: endpoint: median survival time, higher = longer survival
Procedure, shortened: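 Mice carrying the transplanted tumor received test compound or vehicle. Survival was recorded in each group, and the value is the treated-group measurement divided by that of the vehicle-treated control group.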

[1] = dose: 50.0 mg/kg/injection, schedule: Q01DX009 (ip), vehicle: saline
[2] = dose: 100.0 mg/kg/injection, schedule: Q01DX009 (ip), vehicle: saline
[3] = dose: 200.0 mg/kg/injection, schedule: Q01DX009 (ip), vehicle: saline
[4] = dose: 400.0 mg/kg/injection, schedule: Q01DX009 (ip), vehicle: saline
[5] = dose: 50.0 mg/kg/injection, schedule: Q01DX005 (ip), vehicle: saline with Tween-80
[6] = dose: 100.0 mg/kg/injection, schedule: Q01DX005 (ip), vehicle: saline with Tween-80
[7] = dose: 25.0 mg/kg/injection, schedule: Q01DX009 (ip), vehicle: saline with Tween-80
[8] = dose: 50.0 mg/kg/injection, schedule: Q01DX009 (ip), vehicle: saline with Tween-80
[9] = dose: 100.0 mg/kg/injection, schedule: Q01DX009 (ip), vehicle: saline with Tween-80
[10] = dose: 50.0 mg/kg/injection, schedule: Q01DX005 (ip), vehicle: saline
[11] = dose: 100.0 mg/kg/injection, schedule: Q01DX005 (ip), vehicle: saline
[12] = dose: 200.0 mg/kg/injection, schedule: Q01DX005 (ip), vehicle: saline
[13] = dose: 12.5 mg/kg/injection, schedule: Q01DX009 (ip), vehicle: saline with Tween-80
[14] = dose: 50.0 mg/kg/injection, schedule: Q01DX005 (ip), vehicle: Klucel (hydroxypropylcellulose) (HPC)
[15] = dose: 100.0 mg/kg/injection, schedule: Q01DX005 (ip), vehicle: Klucel (hydroxypropylcellulose) (HPC)
[16] = dose: 200.0 mg/kg/injection, schedule: Q01DX009 (ip), vehicle: saline with Tween-80
[17] = dose: 100.0 mg/kg/injection, schedule: Q04DX003 (ip), vehicle: saline with Tween-80
[18] = dose: 200.0 mg/kg/injection, schedule: Q04DX003 (ip), vehicle: saline with Tween-80
[19] = dose: 200.0 mg/kg/injection, schedule: Q01DX005 (ip), vehicle: saline with Tween-80

## N=c1ccn2c(n1)OC1C(O)C(CO)OC12 (stereo unspecified)
[1]
  T/C: 200 % of control
dose: 75.0 mg/kg/injection, schedule: Q01DX009 (ip), vehicle: saline
  T/C: 156 % of control
dose: 100.0 mg/kg/injection, schedule: Q01DX009 (ip), vehicle: saline sonified
  T/C: 181 % of control
[2]
  T/C: 222 % of control
dose: 150.0 mg/kg/injection, schedule: Q01DX009 (ip), vehicle: saline
  T/C: 175 % of control
dose: 160.0 mg/kg/injection, schedule: Q01DX005 (ip), vehicle: saline
  T/C: 150 % of control
dose: 160.0 mg/kg/injection, schedule: Q01DX005 (iv), vehicle: saline
  T/C: 161 % of control
dose: 200.0 mg/kg/injection, schedule: Q01DX009 (ip), vehicle: saline sonified
  T/C: 168 % of control
[3]
  T/C: 272 % of control
dose: 300.0 mg/kg/injection, schedule: Q01DX009 (ip), vehicle: saline
  T/C: 200 % of control
dose: 320.0 mg/kg/injection, schedule: Q01DX005 (ip), vehicle: saline
  T/C: 170 % of control
dose: 320.0 mg/kg/injection, schedule: Q01DX005 (iv), vehicle: saline
  T/C: 184 % of control
dose: 400.0 mg/kg/injection, schedule: Q01DX009 (ip), vehicle: saline sonified
  T/C: 181 % of control
[4]
  T/C: 272 % of control
dose: 600.0 mg/kg/injection, schedule: Q01DX009 (ip), vehicle: saline
  T/C: 91 % of control
dose: 640.0 mg/kg/injection, schedule: Q01DX005 (ip), vehicle: saline
  T/C: 203 % of control
dose: 640.0 mg/kg/injection, schedule: Q01DX005 (iv), vehicle: saline
  T/C: 194 % of control
dose: 800.0 mg/kg/injection, schedule: Q01DX009 (ip), vehicle: saline sonified
  T/C: 181 % of control

## C[n+]1c(-c2ccc(/C=N/NC(=O)c3ccc(C(=O)N/N=C/c4ccc(-c5cn6ccccc6[n+]5C)cc4)c(O)c3O)cc2)cn2ccccc21
[5]
  T/C: 107 % of control
[6]
  T/C: 96 % of control

## N#CCC(C#N)N1CCOCC1 (stereo unspecified)
[7]
  T/C: 100 % of control
[8]
  T/C: 100 % of control
[9]
  T/C: 100 % of control

## CC(C#N)(C#N)N=Nc1ccc(Br)cc1
[5]
  T/C: 106 % of control
[6]
  T/C: 105 % of control

## CC(=O)NOCC1NC(=O)C(CONC(C)=O)NC1=O (stereo unspecified)
dose: 30.0 mg/kg/injection, schedule: Q01DX005 (ip), vehicle: saline
  T/C: 103 % of control
dose: 60.0 mg/kg/injection, schedule: Q01DX005 (ip), vehicle: Klucel (hydroxypropylcellulose) (HPC)
  T/C: 105 % of control
dose: 60.0 mg/kg/injection, schedule: Q01DX005 (ip), vehicle: saline
  T/C: 103 % of control
dose: 120.0 mg/kg/injection, schedule: Q01DX005 (ip), vehicle: Klucel (hydroxypropylcellulose) (HPC)
  T/C: 115 % of control
dose: 120.0 mg/kg/injection, schedule: Q01DX005 (ip), vehicle: saline
  T/C: 108 % of control
dose: 240.0 mg/kg/injection, schedule: Q01DX005 (ip), vehicle: Klucel (hydroxypropylcellulose) (HPC)
  T/C: 120 % of control
dose: 240.0 mg/kg/injection, schedule: Q01DX005 (ip), vehicle: saline
  T/C: 120 % of control

## CCOC(=O)C(C)n1ncnn1 (stereo unspecified)
[10]
  T/C: 107 % of control
[11]
  T/C: 102 % of control
[12]
  T/C: 98 % of control

## O=C(Oc1ccc[nH]c1=O)c1ccc([N+](=O)[O-])cc1
dose: 12.5 mg/kg/injection, schedule: Q01DX009 (ip), vehicle: saline
  T/C: 106 % of control and 110 % of control
dose: 25.0 mg/kg/injection, schedule: Q01DX009 (ip), vehicle: saline
  T/C: 101 % of control and 110 % of control
[1]
  T/C: 102 % of control and 103 % of control and 118 % of control
[2]
  T/C: 105 % of control and 118 % of control
[3]
  T/C: 100 % of control and 110 % of control and 91 % of control
[4]
  T/C: 101 % of control and 110 % of control

## N#CC1(Nc2ccccc2)CCCCC1
dose: 6.25 mg/kg/injection, schedule: Q01DX009 (ip), vehicle: saline with Tween-80
  T/C: 90 % of control
[13]
  T/C: 95 % of control
[7]
  T/C: 90 % of control

## CC1=CC(C)(C)NN1C1=NS(=O)(=O)c2ccccc2N1C
dose: 60.0 mg/kg/injection, schedule: Q01DX005 (ip), vehicle: saline with Tween-80
  T/C: 101 % of control
dose: 120.0 mg/kg/injection, schedule: Q01DX005 (ip), vehicle: saline with Tween-80
  T/C: 97 % of control
dose: 240.0 mg/kg/injection, schedule: Q01DX005 (ip), vehicle: saline with Tween-80
  T/C: 101 % of control

## CCCCCCC[n+]1cccc(C(=O)N2CCOCC2)c1
[13]
  T/C: 104 % of control
[7]
  T/C: 98 % of control
[8]
  T/C: 100 % of control

## C#CCn1c(=O)c2cc3ccccc3nc2n(CC#C)c1=O
[14]
  T/C: 96 % of control
[15]
  T/C: 93 % of control

## Cc1c2ccn3c(=O)c4ccccc4cc3c2c(C)c2c1[nH]c1ccccc12
dose: 0.78 mg/kg/injection, schedule: Q04DX003 (ip), vehicle: distilled water + Tween-80
  T/C: 89 % of control
dose: 1.56 mg/kg/injection, schedule: Q04DX003 (ip), vehicle: distilled water + Tween-80
  T/C: 87 % of control
dose: 200.0 mg/kg/injection, schedule: Q04DX003 (ip), vehicle: distilled water + Tween-80
  T/C: 95 % of control

## COc1ccc2c(c1)OC/C(=C\c1ccc([N+](=O)[O-])o1)C2=O
[9]
  T/C: 91 % of control
[16]
  T/C: 86 % of control
dose: 400.0 mg/kg/injection, schedule: Q01DX009 (ip), vehicle: saline with Tween-80
  T/C: 92 % of control

## CN1CCC(=C(C#N)C#N)CC1
[7]
  T/C: 120 % of control
[8]
  T/C: 115 % of control

## CCC(=O)OC1CC2(C)C(=CC1=O)CCC1C2CCC2(C)C(OC(=O)CC)CCC12 (stereo unspecified)
[8]
  T/C: 100 % of control
[9]
  T/C: 95 % of control
[17]
  T/C: 100 % of control
[16]
  T/C: 100 % of control
[18]
  T/C: 100 % of control

## CC(C)C1=CC2=CCC3C(C)(C(N)=O)CCCC3(C)C2CC1CC#N (stereo unspecified)
[17]
  T/C: 95 % of control
[18]
  T/C: 91 % of control
dose: 400.0 mg/kg/injection, schedule: Q04DX003 (ip), vehicle: saline with Tween-80
  T/C: 91 % of control

## O=C1S/C(=C2\C(=O)N(CN3CCOCC3)c3ccc(Br)cc32)C(=O)N1CN1CCOCC1
[14]
  T/C: 100 % of control
[15]
  T/C: 106 % of control
dose: 200.0 mg/kg/injection, schedule: Q01DX005 (ip), vehicle: Klucel (hydroxypropylcellulose) (HPC)
  T/C: 102 % of control

## CN(C)CCN(C=O)CCN(C)C
[10]
  T/C: 95 % of control
[11]
  T/C: 88 % of control
[12]
  T/C: 101 % of control

## O=C1c2cc3c(cc2C(=O)c2ncccc21)CCCC3
[5]
  T/C: 98 % of control
[6]
  T/C: 86 % of control
[19]
  T/C: 89 % of control

## COC1CC(C23C4CC2C3C2CC/C=C\CCC24)CC1OC (stereo unspecified)
[8]
  T/C: 98 % of control
[9]
  T/C: 100 % of control
[16]
  T/C: 102 % of control

## COC(=O)C1(C)CCCC1=O (stereo unspecified)
dose: 50.0 mg/kg/injection, schedule: Q01DX009 (ip), vehicle: other
  T/C: 96 % of control
dose: 100.0 mg/kg/injection, schedule: Q01DX009 (ip), vehicle: other
  T/C: 95 % of control
dose: 200.0 mg/kg/injection, schedule: Q01DX009 (ip), vehicle: other
  T/C: 99 % of control

## O=P(OCC(F)(F)F)(OCC(F)(F)F)c1ccccc1
[5]
  T/C: 102 % of control
[6]
  T/C: 101 % of control
[19]
  T/C: 96 % of control

## O=C(c1ccc(F)cc1)C1CCN(CCCn2c(=O)[nH]c3ccccc32)CC1
[1]
  T/C: 100 % of control
[2]
  T/C: 101 % of control
[3]
  T/C: 100 % of control

## O=NNc1ccc(Oc2ccccc2)cn1
dose: 6.25 mg/kg/injection, schedule: Q01DX009 (ip), vehicle: saline
  T/C: 156 % of control

## C=CC(=O)OCCN(CCCC)CCCC
[10]
  T/C: 103 % of control
[11]
  T/C: 95 % of control
[12]
  T/C: 97 % of control

## C(=N\Nc1c2c(nc3ccccc13)CCCC2)/c1ccc2c(c1)OCO2
dose: 3.12 mg/kg/injection, schedule: Q01DX005 (ip), vehicle: Klucel (hydroxypropylcellulose) (HPC)
  T/C: 109 % of control
dose: 6.25 mg/kg/injection, schedule: Q01DX005 (ip), vehicle: Klucel (hydroxypropylcellulose) (HPC)
  T/C: 95 % of control
dose: 12.5 mg/kg/injection, schedule: Q01DX005 (ip), vehicle: Klucel (hydroxypropylcellulose) (HPC)
  T/C: 90 % of control and 95 % of control
